This is an account of results in PMC5749703, “Isolation and characterization of a novel metagenomic enzyme capable of degrading bacterial phytotoxin toxoflavin” (PLoS ONE, 2018).

For this assay, the system named is T1, TxeA.
T1 construct: no evidence of oligomer
The experiment in a line: toxoflavin degradation, initial velocities (HPLC). The settings on record: pH 5.0, 20°C; Mn2+, DTT and oxygen required (DTT reduces toxoflavin to dihydrotoxoflavin). The format is biochemical, uncultured bacterium. Here is the method: toxoflavin degradation, initial velocities (HPLC) on TxeA | apparent binding constants of substrate (KM) and catalytic efficiency (kcat/KM) for TxeA were determined

As for `Cn1ncnc2c(=O)n(C)c(=O)nc1-2` [toxoflavin, 1,6-dimethylpyrimido[5,4-e]-1,2,4-triazine-5,7(1H,6H)-dione], the Km (in general, the concentration of substrate that gives half-maximal velocity) is 14 µM.
